Measured values taken from US20060099170A1, “Compositions for inducing increased levels of beta-chemokines and methods of use therefor” (priority 2002, published 2006).
Read-outs that look alike come from different tables or passages of the source.

Legend:
HIV-1 ADA [1] = assay: Antiviral activity of RAPA in monocyte-derived macrophages (RT assay); format: cell-based
Experimental: (§1) Cultures of peripheral blood mononuclear cells (PBMCs) and monocyte-derived macrophages (MDMs) were performed on normal donors as described (Poli, et al. 1993, Perno, et al., 1993). PBMCs were maintained in the presence of 100 units/ml rhIL-2 (Roche Molecular Biochemicals). Cell viability was determined by Trypan blue staining or by the MTT assay (Roche Molecular Biochemicals). RAPA was purchased from Calbiochem. The CCR5 antagonist TAK-779 was obtained from the National Institutes of Health AIDS Research and Reference Reagent Program (Rockville, Md.). CCR5 surface expression was measured on PBMCs cultured in the presence of IL-2 for 7-10 days. Staining was done as described (Lane, et al. 1999), but using CCR5 mAb 182 (R & D Systems). Background staining was determined by adding an isotype-matched control (IgG2b, R&D Systems) instead of the anti-CCR5 mAb. Data were acquired by using a FACS Calibur flow cytometer (BD Biosciences) and analyzed by using FLOWJO (Tree Star, San Carlos, Calif.).
(§2) For infection of PBMCs, fresh donor PBMCs were cultured for 7 days in medium containing IL-2. On day 7, cells were exposed to the virus for 3 h. Nonadsorbed virus was removed by washing cells with PBS three times. Infected cells were cultured in IL-2 medium. Infection of MDMs was carried out as described before (Pemo, et al. 1993). Unless otherwise indicated, PBMCs were infected by using a moi of 0.001, and monocyte-derived macrophages (MDMs) were infected by using a moi of 0.002. Virus growth was monitored in culture supernatants by measuring p24 antigen levels by ELISA (NEN) or by measuring viral RT activity in an RT assay (Willey, et al., 1988).
(§3) On day 5, cells were infected with HIV-1 ADA. Infected cells were cultured in the presence of RAPA for an additional 14 days. Virus production was measured on the culture supernatants on days 7, 10, and 14 after infection.
In the above-described experiment, monocytes had been pretreated with RAPA during the 5-day differentiation period. To control for the possible interference of RAPA with the process of monocyte differentiation, a new infection experiment in which RAPA was not present during the 5-day monocyte differentiation period was designed. To this end, fresh monocytes were cultured for 5 days in the absence of RAPA. On day 5, cells were infected with HIV-1 ADA and then exposed to RAPA.

MDMs = assay: Cell viability of MDMs (MTT assay); format: cell-based, human; conditions: end of experiment (day 14)
Experimental: as §1, §3

[2] = renal transplant recipients, cited from earlier work
HIV-1 IIIb = assay: Antiviral activity of RAPA in PBMCs (p24); format: cell-based; conditions: Human immunodeficiency virus 1, IIIB, PBMC
Experimental: (§4) The following viruses were used in infection experiments, including HIV-1 IIIb, HIV-1 ADA, HIV-1 BaL, HIV-1 JRFL, HIV-1 JRCSF, and HIV-1 SF162. HIV-1 IIIb is a T cell line-adapted lab strain that uses CXCR4 for entry into cells, whereas the rest are isolates that use CCR5.
as §2
(§5) The antiviral activity of RAPA was assayed in PBMCs that had been cultured in the presence of RAPA for 7 days before infection. Cells were infected with the X4 HIV-1 IIIb and the R5 HIV-1 ADA strains. Infected cells were cultured in the presence of RAPA (same concentration as during pretreatment) for 7 additional days, during which time virus replication and cell viability were measured. […]

PBMCs [3] = assay: PBMC proliferation and viability (MTT assay)
Experimental: as §1
Donor PBMCs were cultured in the presence of IL-2 and RAPA (10-fold serial dilutions, from 10^4 to 0.01 nM).

PBMCs [4] = assay: β-chemokine levels (ELISA) in supernatants of IL-2 PBMC cultures with RAPA; format: cell-based, human
Experimental: RAPA was purchased from Calbiochem.
Levels of the β-chemokines MIP-1α, MIP-1β and RANTES were measured in culture supernatants by using ELISA kits (R & D Systems).
We next measured levels of the CCR5 ligands MIP-1α, MIP-1β, and RANTES in supernatants of RAPA-treated PBMC cultures. PBMCs from four donors were cultured in the presence of IL-2 and RAPA for 10 days. […] Among the different donors, RAPA-treated cultures contained 6-39-fold higher levels of MIP-1α than untreated cultures. Similarly, MIP-1β levels were increased 17-47-fold in the presence of RAPA as compared with untreated controls. […] Chemokine results obtained in two of the donors, showing disparity of RANTES levels in the presence of RAPA, are depicted in FIG. 8A.
The effect of RAPA on MIP-1β protein levels provided information regarding the mechanism by which RAPA increases β-chemokine levels. To this end, stimulated PBMCs from two normal donors and from a CCR5-null donor were cultured in the presence of RAPA as in previous experiments. MIP-1β levels in supernatants were evaluated on day 10. Representative results obtained in one of the normal donors are shown next to the results obtained on the CCR5-null donor (FIG. 8B).
PBMCs from a healthy donor were cultured in the presence of IL-2 and Rapamycin. On day 7, chemokines content in the supernatant was measured by ELISA and cell viability was determined by the MTT assay.

five R5 strains of HIV-1 = assay: Antiviral activity of low concentrations of RAPA in PBMCs, panel of R5 strains; format: cell-based; conditions: Human immunodeficiency virus 1, PBMC
Experimental: as §4, §2
RAPA at 0.01 nM inhibited R5 HIV-1 by 10-64% depending on the strains, whereas 0.1 nM RAPA inhibited virus replication by 15-85%. At 1 nM RAPA, all R5 viruses were inhibited by >90%.

[5] = Tolerability of Rapamycin in healthy volunteers; format: in vivo, human; conditions: 5 healthy volunteers, 2 mg/day after 6 mg loading dose, 14 days
Experimental: HIV-1 has been shown in most instances to use the chemokine receptor, CCR5, as a co-receptor for entry into macrophages and CD4 lymphocytes. The natural ligands for the CCR5 co-receptor are proteins called β-Chemokines. […] To assess the activity of β-Chemokine production levels and its effects on CCR5 receptors in vivo an open-labeled, non-randomized observational trial was performed in which 5 healthy volunteers were given 2 mg/day of Rapamycin, following a 6 mg loading dose, for 14 days. Peripheral blood for determining β-Chemokines was obtained at the screening visit, days 7 and 14 of the Rapamycin dosing, and at day 28 (which was two weeks following the last dose of Rapamycin). All 5 subjects completed the study and Rapamycin was well-tolerated.

HIV-1 ADA [6] = assay: Antiviral activity of RAPA in PBMCs (p24); format: cell-based; conditions: Human immunodeficiency virus 1, PBMC
Experimental: as §4, §2, §5

HIV-1 SF 162 = assay: Antiviral activity of RAPA in monocyte-derived macrophages; format: cell-based; conditions: Human immunodeficiency virus 1, Macrophage; 0.01 nM RAPA; data not shown
resting CD4 T cells = assay: Cell viability / proliferation of patients' CD4 T cell cultures (trypan blue); format: cell-based, human; conditions: 5 μg/ml VE, days 7 or 14; data not shown
Experimental: (§6) Blood (50 ml) was drawn from 10 patients on antiretroviral therapy, whose viral load were <400 copies/ml and whose CD4 counts were >300/μl. Resting CD4 T cells were purified by negative selection using antibody-labeled magnetic beads (Dynal, Lake Success, N.Y.). Purified cells were activated by co-culture with γ-irradiated PBMCs from normal donors in the presence of 1 μg/ml anti-CD3 antibody (Coulter, Miami, Fla.) and 100 units/ml rhIL-2 (Roche, Indianapolis, Ind.). Cultures were set up in the absence or continuous presence of 5 μg/ml of VE (Vitamin E succinate, Sigma, St. Louis, Mo.), with medium replenishment every 3 or 4 days. Cultures were maintained for 14 days. Virus production was monitored by measuring p24 antigen (NEN, Boston, Mass.) in the culture supernatants on days 7 and 14. Cell viability was measured by trypan blue staining.

activated PBMCs = assay: β-chemokine levels in activated PBMCs cultured with Vitamin E; format: cell-based, human; conditions: day 6 after addition of Vitamin E, IL-2, FIG. 12
Experimental: B-chemokines levels were measured in activated PBMCs cuftured in the presence of Vitamin E, an antioxidant reported to induce G1 cycle arrest. PBMCs from a healthy donor were activated under the presence of the indicated stimuli for 72 h. Activated cells were cultured in the presence of IL-2 and Vitamin E. Supernatants were evaluated for β-chemokine content on day 6 after addition of Vitamin E. Cell viability was measured by MTT assay.

HIV-1 = HIV-1 production upon activation of patients' resting CD4 T cells (p24 ELISA); format: cell-based; conditions: 5 μg/ml VE
Experimental: HIV-1 gene expression on latently infected resting T cells is dependent on host transcriptional factors, such as NF-κB, that are induced on activated cells. In the present study we have evaluated the in vitro effect of adding Vitamin E (VE) to cultures of patients' resting CD4 T cells under conditions of cellular activation that promote virus expression.
as §6

[7] = IL-2 and RAPA for 10 days, four donors

For `CO[C@H]1C[C@@H]2CC[C@@H](C)[C@@](O)(O2)C(=O)C(=O)N2CCCC[C@H]2C(=O)O[C@H]([C@H](C)C[C@@H]2CC[C@@H](O)[C@H](OC)C2)CC(=O)[C@H](C)/C=C(\C)[C@@H](O)[C@@H](OC)C(=O)[C@H](C)C[C@H](C)/C=C/C=C/C=C/1C` [RAPA, rapamycin], the “inhibition of virus replication” value (HIV-1 ADA [1]; 1 nM RAPA added after infection, no RAPA during differentiation, day 14, two donors) was about 80%, the inhibition at 0.001 µM (HIV-1 ADA [1]; Human immunodeficiency virus 1, Macrophage, 336 h, 1 nM RAPA added after infection, no RAPA during differentiation, day 14, two donors, read-out: inhibition of virus replication) was about 60% and the inhibition at 10 pM (HIV-1 ADA [1]; Human immunodeficiency virus 1, Macrophage, 0.01 nM RAPA, data not shown) was 64%. For the same compound, the “inhibition of virus production” value (HIV-1 ADA [1]; RAPA 0.1-100 nM, day 14, monocytes pretreated 5 days) was 70-95%, the “RAPA concentrations at which cell viability was reduced” value (MDMs) was over 10 nM and the therapeutic through levels ([2]; daily 2 mg) was 9.3 ± 4.4 nM. For the same compound, the therapeutic through levels ([2]; daily 5 mg) was 18.9 ± 8 nM, the inhibition at 0.01 µM (HIV-1 IIIb; 10 nM RAPA (range of 5-25%)) was 13.5% and the inhibition at 0.1 µM (HIV-1 IIIb; 100 nM RAPA (range 29-60%)) was 32%. The “drug concentrations at which reduced proliferation was detected” value (PBMCs [3]; IL-2, MTT assay on day 7) was at least 1 nM, the “drug concentrations at which drug toxicity was observed” value (PBMCs [3]; data not shown) was “above 1 nM” and the MIP-1β levels increase (PBMCs [4]; CCR5-null donor, day 10) was 1.2 fold. For the same compound, the “MIP-1α levels, RAPA-treated versus untreated cultures” value (PBMCs [4]; [7]) was 6-39 fold, the “MIP-1β levels increase compared with untreated controls” value (PBMCs [4]; [7]) was 17-47 fold and the “MIP-1β protein increase compared with RAPA-untreated control” value (PBMCs [4]; normal donor, day 10) was 9.3 fold. For the same compound, the inhibition at 10 pM (five R5 strains of HIV-1; read-out: inhibition of R5 HIV-1) was 10 to 64%, the inhibition at 0.001 µM (five R5 strains of HIV-1; read-out: inhibition of all R5 viruses) was over 90% and the inhibition at 0.0001 µM (five R5 strains of HIV-1; read-out: inhibition of virus replication (R5 HIV-1)) was 15 to 85%. For the same compound, the tolerability [5] was “well-tolerated”, the inhibition at 0.01 µM (HIV-1 ADA [6]; 10 nM RAPA, average of seven experiments (range of 88-97%)) was 91% and the inhibition at 0.1 µM (HIV-1 ADA [6]; 100 nM RAPA, seven experiments (range of 92-99%)) was 94%. It also gave an inhibition at 10 pM (HIV-1 SF 162) of 45%.

With `Cc1c(C)c2c(c(C)c1O)CC[C@@](C)(CCC[C@H](C)CCC[C@H](C)CCCC(C)C)O2` [Vitamin E, alpha-tocopherol] the “cell viability and cell proliferation” value (resting CD4 T cells) was “Neither cell viability nor cell proliferation was affected”, the “levels of β-chemokines” value (activated PBMCs) was “increased levels of β-chemokines” and the “virus production, mean Log p24” value (HIV-1; day 14, 9 patients, log of p24 pg/ml, absence of VE 3.58, p=0.016) was 2.06. The “cultures with positive virus isolation” value (HIV-1; day 14, untreated 9/10) was 7/10.
